Bridge positions count the residues as written; N and C are the ends. Square brackets hold non-standard residues; d marks the D form. Peptide text beside a SMILES is read from it. R8 = C=CCCCCCC[C@@](C)(N)C(=O)O; S5 = C=CCCC[C@](C)(N)C(=O)O; Nle = CCCC[C@H](N)C(=O)O
Assays:
[1] = molecular target: T1, flag-tagged HIF1α (AA 786-826) / His6-tagged p300 (AA 323-423) complex (Homo sapiens, UniProt Q09472); experiment: HIF1α p300 displacement assay (TR FRET, +CHAPS); type: binding; conditions: read-out: IC50 (nM) (HIF1α_p300 Displacement + CHAPS)
T1 construct: His6-tagged p300 (AA 323-423); made in house; host or cells: E. coli (pETDuet vector)
Summary of the method: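 The co-expressed flag-HIF1α (786-826)/His6-p300 (323-423) complex, purified from E. coli with 0.1 mM ZnSO4, was used at 300 nM final with competitor peptides for 1 h at room temperature. Buffer was 150 mM NaCl, 20 mM HEPES pH 7.4, 7.5 mM CHAPS and 1 mM DTT. Anti-Flag-K (0.5 μM) and anti-His-D2 (4 nM) were then added for 2 h, and IC50s were fitted from the TR-FRET ratio.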

HRE-bla ME-180 cells [2] = experiment: Reporter gene assay (HRE-bla ME-180 HIF reporter, GeneBLAzer); type: cell-based, human; conditions: for EC50: 24 hour normoxia
Summary of the method: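 A FRET β-lactamase readout of HIF transcription was used. After compound treatment in 0.3% DMSO/media under normoxic conditions, 20 μl of 6× LiveBLAzer-FRET B/G (CCF4-AM) substrate was added. Plates sat 3 hr at room temperature in the dark and were read at 409 Ex/460Em and 409Ex/530Em on a Synergy 2. Inhibition was compared against DMSO vehicle controls, with chetomin as positive control.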

HRE-bla ME-180 cells [3] = experiment: Cell proliferation assay (viability, MTT, 1% FBS); type: cell-based, human
Summary of the method: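 ME-180 cells (2×10^4/well) in Opti-MEM with 1% FBS were pretreated 16 h under normoxia (21% O2), vehicle 0.5% DMSO final. Incubation then continued under normoxia or hypoxia (1% O2); viable cells quantified by MTT-type CellTiter 96 assay.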

Row | SMILES | IC50 [1] | 18 h Avg % max inhibition at top conc (HIF Rptr-24 hrs normoxia) (μM) (HRE-bla ME-180 cells [2]) | EC50 (HRE-bla ME-180 cells [2]) | Viability 1% FBS AVG (MTT V3-24 hr Normoxia) (μM) (HRE-bla ME-180 cells [3])
1 | CCCC[C@H](NC(=O)[C@H](CCC(=O)O)NC(=O)[C@]1(C)CCCC=CCCCCCC[C@@](C)(NC(=O)[C@H](CCC(=O)O)NC(=O)[C@H](C)NC(=O)[C@H](C)NC(=O)[C@H](C)NC(=O)[C@H](C)NC(=O)[C@]2(C)CCCC=CCCCCCC[C@@](C)(NC(=O)[C@H](CCC(=O)O)NC(=O)CNC(=O)[C@H](CCC(N)=O)NC(=O)[C@H](CC(C)C)NC(=O)[C@H](CC(C)C)NC(C)=O)C(=O)N[C@@H](CC(C)C)C(=O)N[C@@H](CC(C)C)C(=O)N[C@@H](CCCNC(=N)N)C(=O)N[C@@H](C)C(=O)N[C@@H](CC(C)C)C(=O)N[C@@H](CC(=O)O)C(=O)N2)C(=O)N[C@@H](C(C)C)C(=O)N[C@@H](CC(C)C)C(=O)N[C@@H](CCCC)C(=O)N[C@@H](CO)C(=O)N[C@@H](CC(C)C)C(=O)N[C@@H](C(C)C)C(=O)N1)C(N)=O [SP-352] (Ac-LLQGE[R8]LLRALD[S5]AAAAE[R8]VL[Nle]SLV[S5]E[Nle]-NH2; staple 6-13, 19-26) | ≤ 200 nM | ++ (≤10 but <25: ++) | > 30 µM | ++++ (≥30: ++++)
2 | CCCC[C@@H]1NC(=O)[C@H](CC(C)C)NC(=O)[C@H](C(C)C)NC(=O)[C@@](C)(NC(=O)[C@H](CCC(=O)O)NC(=O)[C@H](CC(=O)O)NC(=O)[C@@H](NC(=O)[C@H](Cc2ccccc2)NC(C)=O)[C@@H](C)CC)CCCC=CCCCC2(CCCC=CCCC[C@](C)(C(=O)N[C@@H](C)C(=O)N[C@@H](C)C(=O)N[C@@H](CC(C)C)C(N)=O)NC(=O)[C@H]([C@@H](C)CC)NC(=O)[C@H](C(C)C)NC(=O)[C@H](CC(C)C)NC2=O)NC1=O (stereo partly shown) [SP-211] | 200 to 400 nM | + (<10: +) | > 30 µM | ++++ (≥30: ++++)
3 | CCCC[C@@H]1NC(=O)[C@H](CC(C)C)NC(=O)[C@H]([C@@H](C)O)NC(=O)[C@@](C)(NC(=O)[C@H](CCC(=O)O)NC(=O)[C@H](CC(=O)O)NC(=O)[C@@H](NC(=O)[C@H](Cc2ccccc2)NC(C)=O)[C@@H](C)CC)CCCC=CCCCC2(CCCC=CCCC[C@](C)(C(=O)N[C@@H](CCCC)C(=O)N[C@@H](C)C(=O)N[C@@H](CC(C)C)C(N)=O)NC(=O)[C@H]([C@@H](C)CC)NC(=O)[C@H](C(C)C)NC(=O)[C@H](CC(C)C)NC2=O)NC1=O (stereo partly shown) [SP-207] | ≤ 200 nM | + (<10: +) | > 30 µM | ++++ (≥30: ++++)
4 | CCCC[C@H](NC(=O)[C@H](CC(C)C)NC(=O)[C@@H](NC(=O)[C@H](CCC(=O)O)NC(=O)[C@H](CCC(=O)O)NC(=O)[C@H](CC(=O)O)NC(=O)[C@@H](NC(=O)[C@H](CC(N)=O)NC(=O)[C@@H](NC(=O)[C@]1(C)CCCC=CCCCCCC[C@@](C)(NC(=O)[C@H](CCC(=O)O)NC(=O)CNC(=O)[C@H](CCC(N)=O)NC(=O)[C@H](CC(C)C)NC(=O)[C@H](CC(C)C)NC(C)=O)C(=O)N[C@@H](CC(C)C)C(=O)N[C@@H](CC(C)C)C(=O)N[C@@H](CCCNC(=N)N)C(=O)N[C@@H](C)C(=O)N[C@@H](CC(C)C)C(=O)N[C@@H](CC(=O)O)C(=O)N1)C(C)C)[C@@H](C)CC)C(C)C)C(=O)N[C@@]1(C)CCCC=CCCC[C@@](C)(C(=O)N[C@@H](CCCC)C(=O)NCC(N)=O)NC(=O)[C@H]([C@@H](C)CC)NC(=O)[C@H](C(C)C)NC(=O)[C@H](CC(C)C)NC1=O [SP-309] (Ac-LLQGE[R8]LLRALD[S5]VNIDEEVL[Nle][S5]LVI[S5][Nle]G-NH2; staple 6-13, 23-27) | 200 to 400 nM | + (<10: +) | > 30 µM | ++++ (≥30: ++++)
5 | CCCC[C@H](NC(=O)[C@H](CC(C)C)NC(=O)[C@@H](NC(=O)[C@H](CCC(=O)O)NC(=O)[C@H](CCC(=O)O)NC(=O)[C@H](CC(=O)O)NC(=O)[C@@H](NC(=O)[C@H](CC(N)=O)NC(=O)[C@@H](NC(=O)[C@]1(C)CCCC=CCCC[C@](C)(NC(=O)[C@H](CC(C)C)NC(=O)[C@H](CC(C)C)NC(=O)[C@H](CCC(=O)O)NC(=O)[C@H](CCC(=O)O)NC(=O)CNC(=O)[C@H](CCC(N)=O)NC(=O)[C@H](CC(C)C)NC(=O)[C@H](CC(C)C)NC(C)=O)C(=O)N[C@@H](C)C(=O)N[C@@H](CC(C)C)C(=O)N[C@@H](CC(=O)O)C(=O)N1)C(C)C)[C@@H](C)CC)C(C)C)C(=O)N[C@@]1(C)CCCC=CCCC[C@@](C)(C(=O)N[C@@H](CCCC)C(=O)NCC(N)=O)NC(=O)[C@H]([C@@H](C)CC)NC(=O)[C@H](C(C)C)NC(=O)[C@H](CC(C)C)NC1=O [SP-340] (Ac-LLQGEELL[S5]ALD[S5]VNIDEEVL[Nle][S5]LVI[S5][Nle]G-NH2; staple 9-13, 23-27) | > 700 nM | ++ (≤10 but <25: ++) | > 30 µM | ++++ (≥30: ++++)
6 | CCCC[C@H](NC(=O)[C@H](CCC(=O)O)NC(=O)[C@]1(C)CCCC=CCCCCCC[C@@](C)(NC(=O)[C@H](CCC(=O)O)NC(=O)[C@H](CC(=O)O)NC(=O)[C@@H](NC(=O)[C@H](CC(N)=O)NC(=O)[C@@H](NC(=O)[C@H](CCC(N)=O)NC(=O)[C@H](CC(=O)O)NC(=O)[C@H](CC(C)C)NC(=O)[C@H](C)NC(=O)[C@H](CCCNC(=N)N)NC(=O)[C@]2(C)CCCC=CCCC[C@](C)(NC(=O)[C@H](CCC(N)=O)NC(=O)[C@H](CC(C)C)NC(=O)[C@H](CC(C)C)NC(C)=O)C(=O)N[C@@H](CCC(=O)O)C(=O)N[C@@H](CCC(=O)O)C(=O)N[C@@H](CC(C)C)C(=O)N2)C(C)C)[C@@H](C)CC)C(=O)N[C@@H](C(C)C)C(=O)N[C@@H](CC(C)C)C(=O)N[C@@H](CCCC)C(=O)N[C@@H](CO)C(=O)N[C@@H](CC(C)C)C(=O)N[C@@H](C(C)C)C(=O)N1)C(=O)NCC(N)=O [SP-310] (Ac-LLQ[S5]EEL[S5]RALDQVNIDE[R8]VL[Nle]SLV[S5]E[Nle]G-NH2; staple 4-8, 19-26) | 400 to 700 nM | + (<10: +) | > 30 µM | ++++ (≥30: ++++)
7 | CC[C@H](C)[C@H](NC(=O)[C@H](CC(N)=O)NC(=O)[C@@H](NC(=O)[C@H](CCC(N)=O)NC(=O)[C@H](CC(=O)O)NC(=O)[C@H](CC(C)C)NC(=O)[C@H](C)NC(=O)[C@H](CCCNC(=N)N)NC(=O)[C@H](CC(C)C)NC(=O)[C@H](CC(C)C)NC(=O)[C@H](CCC(=O)O)NC(=O)[C@H](CCC(=O)O)NC(=O)CNC(=O)[C@H](CCC(N)=O)NC(=O)[C@H](CC(C)C)NC(=O)[C@H](CC(C)C)NC(C)=O)C(C)C)C(=O)N[C@@H](CC(=O)O)C(=O)N[C@@H](CCC(=O)O)C(=O)N[C@@]1(C)CCCC=CCCC[C@@](C)(C(=O)N[C@@H](CC(C)C)C(=O)N[C@H](C(=O)N[C@H](C(=O)N[C@@H](CCC(=O)O)C(=O)N[C@@H](CCSC)C(N)=O)[C@@H](C)CC)C(C)C)NC(=O)[C@H](CCSC)NC(=O)[C@H](CC(C)C)NC(=O)[C@H](C(C)C)NC1=O [SP-318] (Ac-LLQGEELLRALDQVNIDE[S5]VLM[S5]LVIEM-NH2; staple 19-23) | 400 to 700 nM | + (<10: +) | > 30 µM | ++++ (≥30: ++++)
